Legend:
Assay type in all cases: in vivo
[1] = system: umbrella sedge (Cyperus difformis); assay: Test B flooded paddy test, umbrella sedge; conditions: Flood, scale 0 to 100
Procedure, shortened: (§1)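 2-leaf plants; pots flooded 3 cm above soil; compound added to paddy water; depth maintained. Greenhouse 13–15 d. Visual rating vs controls, 0 (no effect) to 100 (complete control); dash = no result.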

[2] = system: velvetleaf (Abutilon theophrasti); assay: Test A preemergence, velvetleaf; conditions: 0 to 100 scale (0 no effect, 100 complete control)
Procedure, shortened: (§2)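 In a greenhouse, loam–sand potted species were treated with surfactant-formulated compound, preemergence via directed soil spray and postemergence at 2–10 cm height, one- to two-leaf stage. Response assessed visually at about ten days; 100 means complete control.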

[3] = system: barnyardgrass (Echinochloa crus-galli); assay: Test B flooded paddy test, barnyardgrass; conditions: Flood
Procedure, shortened: as §1

[4] = system: large crabgrass (Digitaria sanguinalis); assay: Test A postemergence, large crabgrass; conditions: 0 to 100 scale (0 no effect, 100 complete control)
Procedure, shortened: as §2

rice (Oryza sativa) = assay: Test B flooded paddy test, rice; conditions: Flood, scale 0 to 100
Procedure, shortened: as §1

[5] = system: barnyardgrass (Echinochloa crus-galli); assay: Test A preemergence, barnyardgrass; conditions: 0 to 100 scale (0 no effect, 100 complete control)
Procedure, shortened: as §2

[6] = system: barnyardgrass (Echinochloa crus-galli); assay: Test A postemergence, barnyardgrass; conditions: 0 to 100 scale (0 no effect, 100 complete control)
Procedure, shortened: as §2

[7] = system: giant foxtail (Setaria faberi); assay: Test A postemergence, giant foxtail; conditions: 0 to 100 scale (0 no effect, 100 complete control)
Procedure, shortened: as §2

[8] = system: velvetleaf (Abutilon theophrasti); assay: Test A postemergence, velvetleaf; conditions: 0 to 100 scale (0 no effect, 100 complete control)
Procedure, shortened: as §2

corn (Zea mays) [9] = assay: Test A preemergence, corn; conditions: 0 to 100 scale (0 no effect, 100 complete control)
Procedure, shortened: as §2

[10] = system: pigweed (Amaranthus retroflexus); assay: Test A postemergence, pigweed; conditions: 0 to 100 scale (0 no effect, 100 complete control)
Procedure, shortened: as §2

[11] = system: pigweed (Amaranthus retroflexus); assay: Test A preemergence, pigweed; conditions: 0 to 100 scale (0 no effect, 100 complete control)
Procedure, shortened: as §2

[12] = system: morningglory (Ipomoea spp.); assay: Test A preemergence, morningglory; conditions: 0 to 100 scale (0 no effect, 100 complete control)
Procedure, shortened: as §2

[13] = system: wheat (Triticum aestivum); assay: Test A preemergence, wheat; conditions: 0 to 100 scale (0 no effect, 100 complete control)
Procedure, shortened: as §2

[14] = system: large crabgrass (Digitaria sanguinalis); assay: Test A preemergence, large crabgrass; conditions: 0 to 100 scale (0 no effect, 100 complete control)
Procedure, shortened: as §2

[15] = system: giant foxtail (Setaria faberi); assay: Test A preemergence, giant foxtail; conditions: 0 to 100 scale (0 no effect, 100 complete control)
Procedure, shortened: as §2

[16] = system: wheat (Triticum aestivum); assay: Test A postemergence, wheat; conditions: 0 to 100 scale (0 no effect, 100 complete control)
Procedure, shortened: as §2

[17] = system: ducksalad (Heteranthera limosa); assay: Test B flooded paddy test, ducksalad; conditions: Flood, scale 0 to 100
Procedure, shortened: as §1

[18] = system: morningglory (Ipomoea spp.); assay: Test A postemergence, morningglory; conditions: 0 to 100 scale (0 no effect, 100 complete control)
Procedure, shortened: as §2

corn (Zea mays) [19] = assay: Test A postemergence, corn; conditions: 0 to 100 scale (0 no effect, 100 complete control)
Procedure, shortened: as §2

[20] = 250 g ai/ha, scale 0 to 100 (0 no effect, 100 complete control)

SMILES: CCn1c(=O)c(C[S+]([O-])C2=NOC(C)(C)C2)nc2cccnc21 (stereo not drawn) [Compound 38]
- Plant response rating, Sedge, Umbrella ([1]; 31 g ai/ha): 0
- Plant response rating, Sedge, Umbrella ([1]; 62 g ai/ha): 0
- Plant response rating, Sedge, Umbrella ([1]; 125 g ai/ha): 0
- Plant response rating, Sedge, Umbrella ([1]; 250 g ai/ha): 0
- Plant response rating, Velvetleaf ([2]; 125 g ai/ha): 0
- Plant response rating, Velvetleaf ([2]; 500 g ai/ha): 0
- Plant response rating, Barnyardgrass ([3]; 31 g ai/ha, scale 0 to 100): 0
- Plant response rating, Barnyardgrass ([3]; 62 g ai/ha, scale 0 to 100): 0
- Plant response rating, Barnyardgrass ([3]; 125 g ai/ha, scale 0 to 100): 0
- Plant response rating, Barnyardgrass [3, 20]: 0
- Plant response rating, Crabgrass, Large ([4]; 125 g ai/ha): 0
- Plant response rating, Crabgrass, Large ([4]; 500 g ai/ha): 20
- Plant response rating, Rice (rice (Oryza sativa); 31 g ai/ha): 0
- Plant response rating, Rice (rice (Oryza sativa); 62 g ai/ha): 0
- Plant response rating, Rice (rice (Oryza sativa); 125 g ai/ha): 0
- Plant response rating, Rice (rice (Oryza sativa); 250 g ai/ha): 0
- Plant response rating, Barnyardgrass ([5]; 125 g ai/ha): 0
- Plant response rating, Barnyardgrass ([5]; 500 g ai/ha): 0
- Plant response rating, Barnyardgrass ([6]; 125 g ai/ha): 20
- Plant response rating, Barnyardgrass ([6]; 500 g ai/ha): 30
- Plant response rating, Foxtail, Giant ([7]; 125 g ai/ha): 0
- Plant response rating, Foxtail, Giant ([7]; 500 g ai/ha): 0
- Plant response rating, Velvetleaf ([8]; 125 g ai/ha): 0
- Plant response rating, Velvetleaf ([8]; 500 g ai/ha): 30
- Plant response rating, Corn (corn (Zea mays) [9]; 125 g ai/ha): 0
- Plant response rating, Corn (corn (Zea mays) [9]; 500 g ai/ha): 0
- Plant response rating, Pigweed ([10]; 125 g ai/ha): 0
- Plant response rating, Pigweed ([10]; 500 g ai/ha): 0
- Plant response rating, Pigweed ([11]; 125 g ai/ha): 0
- Plant response rating, Pigweed ([11]; 500 g ai/ha): 0
- Plant response rating, Morningglory ([12]; 125 g ai/ha): 0
- Plant response rating, Morningglory ([12]; 500 g ai/ha): 0
- Plant response rating, Wheat ([13]; 125 g ai/ha): 0
- Plant response rating, Wheat ([13]; 500 g ai/ha): 0
- Plant response rating, Crabgrass, Large ([14]; 125 g ai/ha): 0
- Plant response rating, Crabgrass, Large ([14]; 500 g ai/ha): 0
- Plant response rating, Foxtail, Giant ([15]; 125 g ai/ha): 0
- Plant response rating, Foxtail, Giant ([15]; 500 g ai/ha): 0
- Plant response rating, Wheat ([16]; 125 g ai/ha): 0
- Plant response rating, Wheat ([16]; 500 g ai/ha): 10
- Plant response rating, Ducksalad ([17]; 31 g ai/ha): 0
- Plant response rating, Ducksalad ([17]; 62 g ai/ha): 0
- Plant response rating, Ducksalad ([17]; 125 g ai/ha): 0
- Plant response rating, Ducksalad ([17]; 250 g ai/ha): 0
- Plant response rating, Morningglory ([18]; 125 g ai/ha): 0
- Plant response rating, Morningglory ([18]; 500 g ai/ha): 10
- Plant response rating, Corn (corn (Zea mays) [19]; 125 g ai/ha): 0
- Plant response rating, Corn (corn (Zea mays) [19]; 500 g ai/ha): 0

SMILES: Cc1cc2nc(C(F)(F)F)c(CS(=O)(=O)C3=NOC(C)(C)C3)c(=O)n2o1 [Compound 53]
- Plant response rating, Sedge, Umbrella ([1]; 62 g ai/ha): 0
- Plant response rating, Sedge, Umbrella ([1]; 250 g ai/ha): 0
- Plant response rating, Velvetleaf ([2]; 125 g ai/ha): 0
- Plant response rating, Velvetleaf ([2]; 500 g ai/ha): 0
- Plant response rating, Barnyardgrass ([3]; 62 g ai/ha, scale 0 to 100): 0
- Plant response rating, Barnyardgrass [3, 20]: 0
- Plant response rating, Crabgrass, Large ([4]; 125 g ai/ha): 30
- Plant response rating, Crabgrass, Large ([4]; 500 g ai/ha): 80
- Plant response rating, Rice (rice (Oryza sativa); 62 g ai/ha): 0
- Plant response rating, Rice (rice (Oryza sativa); 250 g ai/ha): 0
- Plant response rating, Barnyardgrass ([5]; 125 g ai/ha): 30
- Plant response rating, Barnyardgrass ([5]; 500 g ai/ha): 90
- Plant response rating, Barnyardgrass ([6]; 125 g ai/ha): 50
- Plant response rating, Barnyardgrass ([6]; 500 g ai/ha): 90
- Plant response rating, Foxtail, Giant ([7]; 125 g ai/ha): 60
- Plant response rating, Foxtail, Giant ([7]; 500 g ai/ha): 80
- Plant response rating, Velvetleaf ([8]; 125 g ai/ha): 0
- Plant response rating, Velvetleaf ([8]; 500 g ai/ha): 0
- Plant response rating, Corn (corn (Zea mays) [9]; 125 g ai/ha): 0
- Plant response rating, Corn (corn (Zea mays) [9]; 500 g ai/ha): 0
- Plant response rating, Pigweed ([10]; 125 g ai/ha): 0
- Plant response rating, Pigweed ([10]; 500 g ai/ha): 0
- Plant response rating, Pigweed ([11]; 125 g ai/ha): 0
- Plant response rating, Pigweed ([11]; 500 g ai/ha): 0
- Plant response rating, Morningglory ([12]; 125 g ai/ha): 0
- Plant response rating, Wheat ([13]; 125 g ai/ha): 0
- Plant response rating, Wheat ([13]; 500 g ai/ha): 0
- Plant response rating, Crabgrass, Large ([14]; 125 g ai/ha): 30
- Plant response rating, Crabgrass, Large ([14]; 500 g ai/ha): 90
- Plant response rating, Foxtail, Giant ([15]; 125 g ai/ha): 30
- Plant response rating, Foxtail, Giant ([15]; 500 g ai/ha): 90
- Plant response rating, Wheat ([16]; 125 g ai/ha): 0
- Plant response rating, Wheat ([16]; 500 g ai/ha): 20
- Plant response rating, Ducksalad ([17]; 62 g ai/ha): 0
- Plant response rating, Ducksalad ([17]; 250 g ai/ha): 0
- Plant response rating, Morningglory ([18]; 125 g ai/ha): 0
- Plant response rating, Morningglory ([18]; 500 g ai/ha): 10
- Plant response rating, Corn (corn (Zea mays) [19]; 125 g ai/ha): 0
- Plant response rating, Corn (corn (Zea mays) [19]; 500 g ai/ha): 0

Source: US20100099561A1, “HETEROBICYCLIC ALKYLTHIO-BRIDGED ISOXAZOLINES” (E.I. DU PONT DE NEMOURS AND COMPANY, priority 2008, published 2010)
